Target: Glycogen synthase kinase-3 beta (Homo sapiens, UniProt P49841)
Test: Binding affinity to recombinant GSK3beta (unknown origin) assessed as dissociation rate constant upto 0.00975 uM by SPR analysis

Sequence of Glycogen synthase kinase-3 beta (P49841 whole entry): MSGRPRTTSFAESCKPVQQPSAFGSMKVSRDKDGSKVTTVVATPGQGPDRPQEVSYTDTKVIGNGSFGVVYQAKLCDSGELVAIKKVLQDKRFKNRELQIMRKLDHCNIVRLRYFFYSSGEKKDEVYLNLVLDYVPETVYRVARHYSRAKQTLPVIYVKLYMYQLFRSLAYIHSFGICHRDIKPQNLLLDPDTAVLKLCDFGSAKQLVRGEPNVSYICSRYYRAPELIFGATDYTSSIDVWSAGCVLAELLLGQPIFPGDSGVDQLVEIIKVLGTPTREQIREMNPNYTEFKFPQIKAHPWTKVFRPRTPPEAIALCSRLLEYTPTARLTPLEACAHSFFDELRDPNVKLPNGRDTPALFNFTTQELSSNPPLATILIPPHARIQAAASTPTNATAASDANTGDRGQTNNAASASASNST

- koff: 0.0253 s⁻¹
SMILES: Nc1ncc(-c2ccc(S(=O)(=O)N3CCN(CCCCc4cn(CCOCCOCCOCCOCCOCCNc5cccc6c5C(=O)N(C5CCC(=O)NC5=O)C6=O)nn4)CC3)cc2)nc1C(=O)Nc1cccnc1 (stereo unspecified)

Reference: BindingDB's records for doi:10.1016/j.ejmech.2021.113889 (China Pharmaceutical University, 2021)
